Where “and” joins values, the source holds several entries; their conditions need not be identical. Identical values can stand only once.
Biological target: 72 kDa type IV collagenase (Homo sapiens, UniProt P08253)
Assay: Inhibitory activity against matrix metalloprotease-2 (MMP-2).

72 kDa type IV collagenase, sequence (P08253 whole entry): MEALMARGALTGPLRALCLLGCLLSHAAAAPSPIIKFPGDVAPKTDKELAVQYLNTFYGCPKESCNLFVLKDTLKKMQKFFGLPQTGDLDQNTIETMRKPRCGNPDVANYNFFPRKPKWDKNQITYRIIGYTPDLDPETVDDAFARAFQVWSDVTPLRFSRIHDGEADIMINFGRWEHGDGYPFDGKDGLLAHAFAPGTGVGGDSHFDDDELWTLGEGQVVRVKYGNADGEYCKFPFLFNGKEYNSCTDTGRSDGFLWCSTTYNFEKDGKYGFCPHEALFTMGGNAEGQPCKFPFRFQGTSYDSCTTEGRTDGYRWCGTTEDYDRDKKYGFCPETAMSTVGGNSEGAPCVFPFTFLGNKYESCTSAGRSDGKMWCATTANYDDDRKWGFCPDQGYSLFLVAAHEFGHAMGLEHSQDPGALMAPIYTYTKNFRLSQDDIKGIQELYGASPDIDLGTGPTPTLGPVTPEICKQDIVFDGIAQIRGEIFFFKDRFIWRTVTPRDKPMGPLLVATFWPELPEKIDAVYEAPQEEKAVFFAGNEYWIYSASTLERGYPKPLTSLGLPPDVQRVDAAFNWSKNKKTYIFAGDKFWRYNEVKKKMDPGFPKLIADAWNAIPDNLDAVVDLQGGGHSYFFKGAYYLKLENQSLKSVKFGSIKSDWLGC

SMILES	IC50
O=C(CN(C(=O)CN(CCCc1ccccc1)C(=O)Nc1ccc(Oc2ccccc2)cc1)C1CCCc2ccccc21)NO (stereo not given)	> 500 µM
O=C(CN(C(=O)CN(CCCc1ccccc1)C(=O)Nc1ccc(Oc2ccccc2)cc1)C(c1ccccc1)c1ccccc1)NO	200 µM
CCCCCCCN(CC(=O)N(CCc1ccc(F)cc1)CC(=O)NO)C(=O)Nc1ccc(Oc2ccccc2)cc1	114 µM
CCCCCCCN(CC(=O)NO)C(=O)CN(CCCc1ccccc1)C(=O)Nc1ccc(Oc2ccccc2)cc1	150 µM
CCCCCN(CC(=O)NO)C(=O)CN(CCCc1ccccc1)C(=O)Nc1ccc(Oc2ccccc2)cc1	100 µM
CCCCN(CC(=O)NO)C(=O)CN(CCCc1ccccc1)C(=O)Nc1ccc(Oc2ccccc2)cc1	230 µM
CC(C)(C)N(CC(=O)N(CC(=O)NO)CC1CCCCC1)C(=O)Nc1ccc(Oc2ccccc2)cc1	150 µM
O=C(CN(Cc1ccccc1)C(=O)CN(CC1CCCCC1)C(=O)Nc1ccc(Oc2ccccc2)cc1)NO	125 µM
CCC(C)N(CC(=O)NO)C(=O)CN(CCCc1ccccc1)C(=O)Nc1ccc(Oc2ccccc2)cc1 (stereo not given)	370 µM
CCCCCN(CC(=O)NO)C(=O)CN(C(=O)Nc1ccc(Oc2ccccc2)cc1)C(C)CCC (stereo not given)	160 µM
CC(C)N(CC(=O)N(CC(=O)NO)C(C)(C)C)C(=O)Nc1ccc(Oc2ccccc2)cc1	155 µM
CCC(C)N(CC(=O)NO)C(=O)CN(Cc1ccccc1)C(=O)Nc1cccc2ccccc12 (stereo not given)	110 µM
CC(C)(C)N(CC(=O)NO)C(=O)CN(CCCc1ccccc1)C(=O)Nc1ccc(Oc2ccccc2)cc1	> 500 µM
CCCCCN(CC(=O)NO)C(=O)CN(CCCCc1ccccc1)C(=O)Nc1cc(Cl)ccc1OC	> 500 µM
O=C(CN(CC1CCCCC1)C(=O)CN(CCCc1ccccc1)C(=O)Nc1ccc(Oc2ccccc2)cc1)NO	> 500 µM
CCCCN(CC(=O)NO)C(=O)CN(CC1CCCCC1)C(=O)Nc1ccc([N+](=O)[O-])cc1C	> 500 µM
CCCCCCCN(CC(=O)NO)C(=O)CN(C(=O)Nc1ccc(OCCCC)cc1)C(c1ccccc1)c1ccccc1	> 500 µM
CSc1ccccc1NC(=O)N(CCCc1ccccc1)CC(=O)N(CC(=O)NO)C(C)(C)C	150 µM
O=C(CN(CCCCc1ccccc1)C(=O)CN(CCCc1ccccc1)C(=O)Nc1ccc(Oc2ccccc2)cc1)NO	0.9 µM and 0.3 µM
CC(C)N(CC(=O)NO)C(=O)CN(CCCc1ccccc1)C(=O)Nc1ccc(Oc2ccccc2)cc1	> 500 µM
CCCC(C)N(CC(=O)NO)C(=O)CN(C(=O)Nc1ccc2ccccc2c1)C1CCCc2ccccc21 (stereo not given)	120 µM
CCCC(C)N(CC(=O)NO)C(=O)CN(CCCc1ccccc1)C(=O)Nc1ccc(Oc2ccccc2)cc1 (stereo in doubt; form 2)	100 µM

Continued by falling IC50, values first:

IC50	SMILES
90 µM	CC(C)N(CC(=O)NO)C(=O)CN(CCc1ccc(F)cc1)C(=O)Nc1ccc(Oc2ccccc2)cc1
72 µM	CCC(C)N(CC(=O)N(CC(=O)NO)C(C)C)C(=O)Nc1ccc(Oc2ccccc2)cc1 (stereo not given)
60 µM	CCCCCCCN(CC(=O)NO)C(=O)CN(CCCCC)C(=O)Nc1ccc(Oc2ccccc2)cc1
60 µM	O=C(CN(C(=O)CN(C(=O)Nc1ccc(Oc2ccccc2)cc1)C1CCCc2ccccc21)C1CCCc2ccccc21)NO (stereo not given)
54 µM	CCCCN(CC(=O)N(CC(=O)NO)C(C)CC)C(=O)Nc1ccc(Oc2ccccc2)cc1 (stereo not given)
52 µM	O=C(CN(CCCCc1ccccc1)C(=O)CN(CCCCc1ccccc1)C(=O)Nc1ccc(Oc2ccccc2)cc1)NO
51 µM	CCCCN(CC(=O)NO)C(=O)CN(CCc1ccc(F)cc1)C(=O)Nc1ccc(Oc2ccccc2)cc1
50 µM	O=C(CN(C(=O)CN(C(=O)Nc1ccc(Oc2ccccc2)cc1)C(c1ccccc1)c1ccccc1)C(c1ccccc1)c1ccccc1)NO
43 µM	O=C(CN(CCCc1ccccc1)C(=O)CN(Cc1ccccc1)C(=O)Nc1ccc(Oc2ccccc2)cc1)NO
40 µM	O=C(CN(CCc1ccc(F)cc1)C(=O)CN(CCCc1ccccc1)C(=O)Nc1ccc(Oc2ccccc2)cc1)NO
23 µM	CCCC(C)N(CC(=O)NO)C(=O)CN(CCCc1ccccc1)C(=O)Nc1ccc(Oc2ccccc2)cc1 (stereo in doubt; form 1)
2 µM	O=C(CN(CCCc1ccccc1)C(=O)CN(CCCc1ccccc1)C(=O)Nc1ccc(Oc2ccccc2)cc1)NO
0.3 µM	O=C(CN(Cc1ccccc1)C(=O)CN(CCCc1ccccc1)C(=O)Nc1ccc(Oc2ccccc2)cc1)NO
